Source: US20170280720A1, “ARGININE […] INHIBITORS AND USES THEREOF” (EPIZYME, INC., priority 2014, published 2017)

Experiments:
human PRMT1 = molecular target: T1, human PRMT1 (Homo sapiens, UniProt Q99873); assay: PRMT1 biochemical assay (3H-SAM Flashplate, peptide substrate); settings: read-out: PRMT1_ IC50
T1 construct: GST-tagged PRMT1; made in house; host or cells: High Five insect cells (baculovirus, pFastBacI)
Outline: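 FLAG-tagged full-length human PRMT1 (0.5 nM, GST-tagged, insect-cell expressed) preincubated 30 min at RT with compound, then biotinylated histone H4 36-50 peptide (20 nM) plus 200 nM 3H-SAM and 1.5 uM SAM in Bicine pH 7.6, 2% DMSO. 3H-methylated peptide captured on streptavidin Flashplate; IC50 from 3/4-parameter fit.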

PRMT5 = PRMT5 (Homo sapiens, UniProt O14744); assay: PRMT5 IC50 (Table 2; no method described); format: biochemical; settings: read-out: PRMT5_ IC50
Sequence of PRMT5 (O14744 whole entry, species assumed): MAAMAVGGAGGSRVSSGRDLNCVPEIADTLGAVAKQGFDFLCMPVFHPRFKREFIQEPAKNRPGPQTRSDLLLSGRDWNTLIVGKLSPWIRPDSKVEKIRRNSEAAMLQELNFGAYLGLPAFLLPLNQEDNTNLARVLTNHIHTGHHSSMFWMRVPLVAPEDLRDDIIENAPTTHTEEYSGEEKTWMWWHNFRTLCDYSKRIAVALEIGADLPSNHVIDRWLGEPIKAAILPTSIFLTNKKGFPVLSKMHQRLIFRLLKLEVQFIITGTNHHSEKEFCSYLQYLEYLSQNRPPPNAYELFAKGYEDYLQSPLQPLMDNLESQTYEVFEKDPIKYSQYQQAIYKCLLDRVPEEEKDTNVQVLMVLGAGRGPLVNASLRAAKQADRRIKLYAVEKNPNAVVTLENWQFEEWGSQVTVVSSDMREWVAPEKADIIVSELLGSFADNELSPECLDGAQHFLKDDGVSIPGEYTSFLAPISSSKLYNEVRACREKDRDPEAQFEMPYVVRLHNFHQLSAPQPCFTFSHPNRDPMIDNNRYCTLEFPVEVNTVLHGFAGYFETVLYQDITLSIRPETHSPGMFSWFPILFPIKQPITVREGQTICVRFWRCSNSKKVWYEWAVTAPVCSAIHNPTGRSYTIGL
Sequence of PRMT5 (Q9BQA1 whole entry partner, species assumed): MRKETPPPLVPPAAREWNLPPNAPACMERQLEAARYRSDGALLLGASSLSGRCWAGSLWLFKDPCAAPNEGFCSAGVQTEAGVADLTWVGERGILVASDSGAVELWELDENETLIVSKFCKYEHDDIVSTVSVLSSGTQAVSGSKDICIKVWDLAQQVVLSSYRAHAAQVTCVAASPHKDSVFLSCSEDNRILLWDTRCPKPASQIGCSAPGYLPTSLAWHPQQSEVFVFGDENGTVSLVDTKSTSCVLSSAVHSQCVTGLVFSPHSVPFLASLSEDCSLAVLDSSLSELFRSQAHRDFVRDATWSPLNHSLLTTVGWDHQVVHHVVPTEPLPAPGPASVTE

T1 sequence (Q99873 with tags, fused parts or gaps): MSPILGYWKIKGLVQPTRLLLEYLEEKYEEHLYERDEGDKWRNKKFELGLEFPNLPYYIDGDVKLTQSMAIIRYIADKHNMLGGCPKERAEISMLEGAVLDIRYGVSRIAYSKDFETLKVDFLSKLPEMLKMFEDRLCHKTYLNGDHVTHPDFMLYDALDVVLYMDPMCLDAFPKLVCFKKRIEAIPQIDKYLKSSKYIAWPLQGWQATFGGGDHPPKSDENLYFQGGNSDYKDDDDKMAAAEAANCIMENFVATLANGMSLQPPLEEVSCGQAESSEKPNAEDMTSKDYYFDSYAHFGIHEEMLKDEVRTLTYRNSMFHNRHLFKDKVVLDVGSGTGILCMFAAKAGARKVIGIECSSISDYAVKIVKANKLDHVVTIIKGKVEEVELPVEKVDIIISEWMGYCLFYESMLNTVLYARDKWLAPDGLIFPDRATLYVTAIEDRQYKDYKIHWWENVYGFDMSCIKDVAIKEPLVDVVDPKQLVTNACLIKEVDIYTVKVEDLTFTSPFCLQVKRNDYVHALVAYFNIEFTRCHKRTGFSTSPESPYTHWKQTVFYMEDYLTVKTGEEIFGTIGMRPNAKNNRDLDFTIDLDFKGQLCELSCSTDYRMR

| IC50 (human PRMT1) [nM] | IC50 (PRMT5) [nM] | Compound |
| --- | --- | --- |
|  | 200000 | CNCCN(C)Cc1cccc(-c2nc(C(=O)NCc3cn4ccsc4n3)c3cnn(C4CC4)c3n2)c1 [Compound 180] |
|  | 12100 | CNCCN(C)Cc1cccc(-c2cc(C(=O)NCc3ccncc3)c3cnn(C(C)C)c3n2)c1 [Compound 182] |
|  | 50000 | CC(C)n1ncc2c(C(=O)N(C)CC3CCOCC3)cc(-c3cccc(CN(C)CCN)c3)nc21 [Compound 256] |
|  | 34300 | CNCCN(C)Cc1cccc(-c2cc(C(=O)N(C)Cc3ccccn3)c3cnn(C(C)C)c3n2)c1 [Compound 300] |
| 7490 | 49000 | Cc1cc(C)c(CNC(=O)c2cc(-c3cccc(CNCCN)c3)nc3c2cnn3C(C)C)c(=O)[nH]1 [Compound 365] |
| 418 |  | CNCCN(C)Cc1ccc(-c2cc(C(=O)NCc3c(C)cc(C)[nH]c3=O)c(C)c3nn(C4CCCC4)cc23)cc1 [Compound 370] |
| 11800 |  | Cc1cc(C)c(CNC(=O)c2cc(CNCCN(C)C)cc3c2cnn3C2CCCC2)c(=O)[nH]1 [Compound 371] |
| 335 | 2120 | Cc1cc(C)c(CNC(=O)c2cncc(-c3ccc(CNCCN)cc3)c2)c(=O)[nH]1 [Compound 379] |
| 220 |  | CNCCN(C)Cc1cccc(-c2cc(C(=O)NCCC(=O)NCc3c(C)cc(C)[nH]c3=O)c3cnn(C(C)C)c3n2)c1 [Compound 384] |
| 232 |  | CNCCN(C)Cc1cccc(-c2cc(C(=O)NCCCCC(=O)NCc3c(C)cc(C)[nH]c3=O)c3cnn(C(C)C)c3n2)c1 [Compound 385] |
| 1220 | 30500 | COc1nc(C)cc(C)c1CNC(=O)c1cc(-c2cccc(CNCCN)c2)nc2c1cnn2C(C)C [Compound 391] |

Second part, the compound before the results:

| Compound | IC50 (human PRMT1) [nM] | IC50 (PRMT5) [nM] |
| --- | --- | --- |
| CNCCN(C)Cc1cccc(-c2nc(NCc3nccs3)c3cnn(C4CC4)c3n2)c1 [Compound 2] | 21.7 |  |
| CN(CCN)Cc1cccc(-c2ccc(C(=O)NCC3CCOCC3)c(N(C)CC3CC3)c2)c1 [Compound 263] |  | 7730 |
| Cc1cc(C)c(CNC(=O)c2cc(-c3ccc(CNCCN(C)C)cc3)nc3c2cnn3C(C)C)c(=O)[nH]1 [Compound 359] | 4660 |  |
| Cc1cc(C)c(CNC(=O)c2cc(-c3cccc(CN(C)CCN)c3)nc3c2cnn3C(C)C)c(=O)[nH]1 [Compound 360] | 254 | 15400 |
| Cc1cc(C)c(CNC(=O)c2cc(-c3cccc(CN(C)CCN(C)C)c3)nc3c2cnn3C(C)C)c(=O)[nH]1 [Compound 361] | 4270 |  |
| CNCCN(C)Cc1ccc(-c2cc(C(=O)NCc3c(C)cc(C)[nH]c3=O)c(C)c3n[nH]cc23)cc1 [Compound 362] | 104 |  |
| Cc1cc(C)c(CNC(=O)c2cc(-c3cccc(CNCCN)c3)cc3[nH]ncc23)c(=O)[nH]1 [Compound 366] | 2400 | 4200 |
| CNCCN(C)Cc1cccc(-c2cc(C(=O)NCc3c(C)cc(C)[nH]c3=O)c3cnn(C(C)C)c3c2)c1 [Compound 367] | 183 |  |
| CNCCN(C)Cc1cccc(-c2cc(C(=O)NCc3c(C)cc(C)[nH]c3=O)c3cnn(C(C)C)c3n2)c1 [Compound 368] | 86.6 |  |
| CNCCN(C)Cc1cccc(-c2cc(C(=O)NCc3c(C)cc(C)[nH]c3=O)c(C)c3[nH]ncc23)c1 [Compound 372] | 59.6 |  |
| CNCCN(C)Cc1ccc(-c2cncc(C(=O)NCc3c(C)cc(C)[nH]c3=O)c2)cc1 [Compound 373] | 64.7 | 14700 |
| Cc1cc(C)c(CNC(=O)c2cncc(-c3ccc(CN(C)CCN)cc3)c2)c(=O)[nH]1 [Compound 374] | 73.1 | 44300 |
| Cc1cc(C)c(CNC(=O)c2cncc(-c3ccc(CN(C)CCN(C)C)cc3)c2)c(=O)[nH]1 [Compound 378] | 297 | 66600 |
| CNCCN(C)Cc1cccc(-c2cc(C(=O)NCCCCCC(=O)NCc3c(C)cc(C)[nH]c3=O)c3cnn(C(C)C)c3n2)c1 [Compound 382] | 177 |  |
| CNCCN(C)Cc1cccc(-c2cc(C(=O)NCCCC(=O)NCc3c(C)cc(C)[nH]c3=O)c3cnn(C(C)C)c3n2)c1 [Compound 383] | 212 |  |
| COc1nc(C)cc(C)c1CNC(=O)c1cc(-c2cccc(CN(C)CCN(C)C)c2)nc2c1cnn2C(C)C [Compound 386] | 1610 |  |
